Laboratory results from BigSolDB 2.1.

CN1CCC(N(Cc2cccs2)c2ccccc2)CC1
solubility (mole fraction)
Conditions | 278.15 K | 283.15 K | 288.15 K | 293.15 K | 298.15 K | 303.15 K | 308.15 K | 313.15 K | 318.15 K | 323.15 K
in DMF | 0.00706 | 0.00795 | 0.00881 | 0.00971 | 0.0108 | 0.0119 | 0.0132 | 0.0143 | 0.0158 | 0.0175
in water | 2.63e-05 | 2.84e-05 | 3.06e-05 | 3.36e-05 | 3.72e-05 | 4.16e-05 | 4.62e-05 | 5.09e-05 | 5.66e-05 | 6.3e-05
